Assay results as given in US20100234417A1, “THYROTROPIN RELEASING HORMONE RECEPTOR-OREXIN RECEPTOR HETERO-DIMERS/-OLIGOMERS” (DIMERIX BIOSCIENCE PTY LTD., priority 2006, published 2010).
Ends that are not written are not given here.

Columns and labels:
[1] = test system: thyrotropin releasing hormone receptor/orexin receptor hetero-dimer/-oligomer (OxR2 with HA-TRHR); assay: eBRET: OxR2/Rluc8 + barr2/Venus + HA-TRHR as IG3; type: cell-based; conditions: FIG. 18
Description: (§1) Briefly, referring to FIGS. 1 to 3, the IGs are provided in the form of the two receptors (TRHR and OxR). One of the two is attached to an RC (IG1-RC1, IG3). A second IG (IG2-RC2) is derived from a molecule that interacts with the receptors upon ligand binding (e.g. beta-arrestin, or a mutant thereof).
Cells were seeded in 6-well plates at a density of approximately 630,000 cells/well (HEK293FT) or approximately 150,000 cells/well (COS-7) and maintained at 37° C., 5% CO2 in Complete Media (DMEM containing 0.3 mg/ml glutamine, 100 IU/ml penicillin and 100 μg/ml streptomycin (Gibco)) supplemented with 10% fetal calf serum (FCS; Gibco). […] Filtered light emissions were sequentially measured for 3-5 s in each of the ‘donor wavelength window’ (400-475 nm) and ‘acceptor wavelength window’ (>500 nm for EGFP or 520-540 nm for EYFP, Topaz (TYFP) or Venus). […] In this case, data are shown as ‘fluorescence/luminescence’ being the ratio of light emission through the ‘acceptor wavelength window’ over the 400-475 nm emission for a particular cell sample. Unless otherwise stated, BRET signals were measured in 96-well microplates.
Referring now to FIG. 18, eBRET signals were measured from cells transiently co-expressing OxR2/Rluc8 and barr2/Venus either with HA-TRHR or pcDNA3.

[2] = test system: TRHR335 with TRHR; assay: eBRET: TRHR335/Rluc + EGFP/barr1 + TRHR as IG3; type: cell-based; conditions: FIG. 9
Source text: as §1, with “thereof). The detection system not only detects the formation of the TRHR-OxR heterodimer but can distinguish whether a ligand or drug acts as an agonist, partial agonist, antagonist, inverse agonist or partial inverse agonist at the receptor hetero-dimer.” for “thereof).”
Cells were seeded in 6-well plates at a density of approximately 630,000 cells/well (HEK293FT) or approximately 150,000 cells/well (COS-7) and maintained at 37° C., 5% CO2 in Complete Media (DMEM containing 0.3 mg/ml glutamine, 100 IU/ml penicillin and 100 μg/ml streptomycin (Gibco)) supplemented with 10% fetal calf serum (FCS; Gibco). […] BRET measurements were taken at 37° C. using the Victor Light plate reader with Wallac 1420 software (Perkin-Elmer). Filtered light emissions were sequentially measured for 3-5 s in each of the ‘donor wavelength window’ (400-475 nm) and ‘acceptor wavelength window’ (>500 nm for EGFP or 520-540 nm for EYFP, Topaz (TYFP) or Venus). […] Unless otherwise stated, BRET signals were measured in 96-well microplates. […]

OxA: orexin A; known orexin receptor modulator, used as IG3 ligand (modulator) (QPLPDCCRQKTCSCRLYELLHGAGNHAAGILTL; ends and bridges not checked; cysteine pairing not given here; UniProt O43612 34-66, looked up)
time to eBRET signal peak [1]: ≤ 5 min
eBRET signal [2]: no eBRET signal above baseline

NC(=O)[C@@H]1CCCN1C(=O)[C@H](Cc1cnc[nH]1)NC(=O)[C@@H]1CCC(=O)N1 [TRH, pGlu-His-Pro-NH2]
eBRET signal reached (ligand-induced BRET ratio) ([1]; gradual increase over time): 0.05
